Experiment [1] has as its system Plasmodium falciparum. Nature of the experiment: Antimalarial activity against […] Plasmodium falciparum Dd2. It is filed as functional, organism-based.
Experiment [2] has as its target T1, Cytochrome P450 1A2 (Homo sapiens, UniProt P05177).
T1 sequence (P05177 whole entry): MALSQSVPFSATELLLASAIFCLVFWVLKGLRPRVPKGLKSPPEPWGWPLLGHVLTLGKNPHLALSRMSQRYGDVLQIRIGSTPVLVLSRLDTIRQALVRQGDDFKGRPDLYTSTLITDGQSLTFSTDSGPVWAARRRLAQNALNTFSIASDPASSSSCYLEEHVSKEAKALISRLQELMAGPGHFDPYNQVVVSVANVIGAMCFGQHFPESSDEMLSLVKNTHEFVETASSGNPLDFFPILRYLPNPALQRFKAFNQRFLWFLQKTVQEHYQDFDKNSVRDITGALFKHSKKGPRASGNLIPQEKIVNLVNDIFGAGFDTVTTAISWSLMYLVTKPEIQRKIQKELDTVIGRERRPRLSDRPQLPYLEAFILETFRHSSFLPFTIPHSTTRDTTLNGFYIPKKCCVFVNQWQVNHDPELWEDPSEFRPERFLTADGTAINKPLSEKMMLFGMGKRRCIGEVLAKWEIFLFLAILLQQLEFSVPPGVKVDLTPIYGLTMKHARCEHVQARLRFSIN
Nature of the experiment: Inhibition of human CYP1A2. It is filed as ADME.

In experiment [3] the target is T2, Cytochrome P450 2C8 (Homo sapiens, UniProt P10632).
T2 sequence (P10632 whole entry): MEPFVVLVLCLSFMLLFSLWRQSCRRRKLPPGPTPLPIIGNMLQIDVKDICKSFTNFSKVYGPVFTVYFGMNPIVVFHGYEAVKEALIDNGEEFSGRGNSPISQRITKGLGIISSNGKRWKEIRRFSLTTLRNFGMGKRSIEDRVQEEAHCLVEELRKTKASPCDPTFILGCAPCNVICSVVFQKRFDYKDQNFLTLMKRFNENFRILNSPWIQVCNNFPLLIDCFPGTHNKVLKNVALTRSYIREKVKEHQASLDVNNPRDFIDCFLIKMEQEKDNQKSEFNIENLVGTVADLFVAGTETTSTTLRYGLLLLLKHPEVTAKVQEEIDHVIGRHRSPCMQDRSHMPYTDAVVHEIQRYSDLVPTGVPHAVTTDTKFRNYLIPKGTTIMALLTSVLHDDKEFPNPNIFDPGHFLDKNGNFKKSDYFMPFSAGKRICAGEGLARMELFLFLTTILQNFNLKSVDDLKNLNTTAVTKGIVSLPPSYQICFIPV
Nature of the experiment: Inhibition of human CYP2C8. Type of experiment: ADME.

From ChEMBL document CHEMBL1153384, “Synthesis, antimalarial activity, and preclinical pharmacology of a novel series of 4'-fluoro and 4'-chloro analogues of amodiaquine. Identification of a suitable "back-up" compound for N-tert-butyl isoquine” (J Med Chem, 2009) come the findings set out here.

pIC50: −log10 of the molar value.

Broadly, the pIC50 is the IC50 on a negative log10 scale, so that one unit is a factor of ten. A higher pIC50 goes with a low IC50. In the case of `CC(C)(C)NCc1cc(Nc2ccnc3cc(Cl)ccc23)ccc1F`, the figures for the negative-log IC50 (pIC50) in experiment [1], in experiment [2] and in experiment [3] were 7.65, 5.06 and 5.01, respectively.
